Test results published in publication PMC3461280 (Bioorganic & medicinal chemistry letters, 2012).

What was measured:
[1] = rat; cited from earlier work
[2] = cited from earlier work
human D3 receptor = human D3 receptor (Homo sapiens, UniProt P35462); format: cell-based; details: D3 functional mitogenesis assay
hERG potassium channel = details: cited from earlier work
P450 isoforms = details: cited from earlier work
[3] = cited from earlier work; remark: listed apart in the source
[4] = cited from earlier work; remark: listed apart in the source

Chain of human D3 receptor (P35462 whole entry): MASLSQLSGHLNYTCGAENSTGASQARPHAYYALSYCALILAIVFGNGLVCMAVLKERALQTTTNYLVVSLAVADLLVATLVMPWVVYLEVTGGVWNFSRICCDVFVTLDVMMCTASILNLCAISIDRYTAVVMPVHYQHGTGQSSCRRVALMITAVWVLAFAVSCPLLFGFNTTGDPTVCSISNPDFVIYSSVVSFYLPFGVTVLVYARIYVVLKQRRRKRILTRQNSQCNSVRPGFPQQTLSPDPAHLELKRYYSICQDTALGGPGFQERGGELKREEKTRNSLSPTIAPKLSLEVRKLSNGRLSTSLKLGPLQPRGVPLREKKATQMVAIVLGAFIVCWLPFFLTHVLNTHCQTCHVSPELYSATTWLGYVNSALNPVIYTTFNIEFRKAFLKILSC

Cc1nc(-c2cccc(C(=O)N[C@H]3CC[C@H](CCN4CCc5ccc(S(C)(=O)=O)cc5CC4)CC3)c2)no1 [SB-414796]
bioavailability [1]: excellent | CNS penetration [2]: good

CCCN(CC[C@H]1CC[C@H](NC(=O)c2cccc(-c3noc(C)n3)c2)CC1)[C@H]1CCc2nc(N)sc2C1 [Compound 38]
functional activity at the D3 receptor (human D3 receptor): full agonists

Cc1ncoc1-c1nnc(SCCCN2CC3CC3(c3ccc(C(F)(F)F)cc3F)C2)n1C (stereo not shown) [Compound 3]
inhibition at the hERG channel (hERG potassium channel): weak inhibition | inhibition on all the P450 isoforms (P450 isoforms): weak inhibition | oral bioavailability [3]: excellent | CNS penetration [2]: good

CCCN(CC[C@H]1CC[C@H](NC(=O)c2ccc3ccccc3c2)CC1)[C@H]1CCc2nc(N)sc2C1 [Compound 11]
aqueous solubility [4]: excellent

CCCN(CC[C@H]1CC[C@H](NC(=O)/C=C/c2ccccc2)CC1)[C@H]1CCc2nc(N)sc2C1 [Compound 10]
aqueous solubility [4]: excellent

CCCN(CC[C@H]1CC[C@H](NS(=O)(=O)c2cccnc2Cl)CC1)[C@H]1CCc2nc(N)sc2C1 [Compound 52]
functional activity at the D3 receptor (human D3 receptor): full agonists
